Measured values: PubChem BioAssay (NCI)
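Protocol summary: plate cells (96-well), add compound at 5 concentrations, incubate 48 h, interpolate endpoints linearly. The concentration for 50% growth inhibition is given as GI50. TGI marks complete inhibition of growth.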

How the values were obtained:
Assay in all cases: DTP human tumour cell line panel, 48 h
786-0 renal = tested on: 786-0 renal
A498 renal = tested on: A498 renal
A549 NSCLC = tested on: A549 NSCLC
ACHN renal = tested on: ACHN renal
BT-549 breast = tested on: BT-549 breast
CAKI-1 renal = tested on: CAKI-1 renal
CCRF-CEM leukemia = tested on: CCRF-CEM leukemia
COLO 205 colon = tested on: COLO 205 colon
DU-145 prostate = tested on: DU-145 prostate
EKVX NSCLC = tested on: EKVX NSCLC
HCC-2998 colon = tested on: HCC-2998 colon
HCT-116 colon = tested on: HCT-116 colon
HCT-15 colon = tested on: HCT-15 colon
HL-60(TB) leukemia = tested on: HL-60(TB) leukemia
HOP-62 NSCLC = tested on: HOP-62 NSCLC
HOP-92 NSCLC = tested on: HOP-92 NSCLC
HS 578T breast = tested on: HS 578T breast
HT29 colon = tested on: HT29 colon
IGROV1 ovarian = tested on: IGROV1 ovarian
K-562 leukemia = tested on: K-562 leukemia
KM12 colon = tested on: KM12 colon
LOX IMVI melanoma = tested on: LOX IMVI melanoma
M14 melanoma = tested on: M14 melanoma
MALME-3M melanoma = tested on: MALME-3M melanoma
MCF7 breast = tested on: MCF7 breast
MDA-MB-231 breast = tested on: MDA-MB-231 breast
MDA-MB-435 = tested on: MDA-MB-435
MDA-MB-468 breast = tested on: MDA-MB-468 breast
MOLT-4 leukemia = tested on: MOLT-4 leukemia
NCI-H226 lung = tested on: NCI-H226 lung
NCI-H23 lung = tested on: NCI-H23 lung
NCI-H460 lung = tested on: NCI-H460 lung
NCI-H522 lung = tested on: NCI-H522 lung
NCI/ADR-RES ovarian = tested on: NCI/ADR-RES ovarian
OVCAR-3 ovarian = tested on: OVCAR-3 ovarian
OVCAR-4 ovarian = tested on: OVCAR-4 ovarian
OVCAR-5 ovarian = tested on: OVCAR-5 ovarian
OVCAR-8 ovarian = tested on: OVCAR-8 ovarian
PC-3 prostate = tested on: PC-3 prostate
RPMI-8226 leukemia = tested on: RPMI-8226 leukemia
RXF 393 renal = tested on: RXF 393 renal
SF-268 CNS = tested on: SF-268 CNS
SF-295 CNS = tested on: SF-295 CNS
SF-539 CNS = tested on: SF-539 CNS
SK-MEL-2 melanoma = tested on: SK-MEL-2 melanoma
SK-MEL-28 melanoma = tested on: SK-MEL-28 melanoma
SK-MEL-5 melanoma = tested on: SK-MEL-5 melanoma
SK-OV-3 ovarian = tested on: SK-OV-3 ovarian
SN12C renal = tested on: SN12C renal
SNB-19 CNS = tested on: SNB-19 CNS
SNB-75 CNS = tested on: SNB-75 CNS
SR leukemia = tested on: SR leukemia
SW-620 colon = tested on: SW-620 colon
T-47D breast = tested on: T-47D breast
TK-10 renal = tested on: TK-10 renal
U251 CNS = tested on: U251 CNS
UACC-257 melanoma = tested on: UACC-257 melanoma
UACC-62 melanoma = tested on: UACC-62 melanoma
UO-31 renal = tested on: UO-31 renal

C#C[C@]1(O)CC[C@H]2[C@@H]3CC=C4c5sc(Nc6cc(C)cc(C)n6)nc5CC[C@]4(C)[C@H]3CC[C@@]21C
GI50 (786-0 renal): > 100 µM
TGI (786-0 renal): > 100 µM
GI50 (A498 renal): > 100 µM
TGI (A498 renal): > 100 µM
GI50 (A549 NSCLC): > 100 µM
TGI (A549 NSCLC): > 100 µM
GI50 (ACHN renal): > 100 µM
TGI (ACHN renal): > 100 µM
GI50 (BT-549 breast): > 100 µM
TGI (BT-549 breast): > 100 µM
GI50 (CAKI-1 renal): > 100 µM
TGI (CAKI-1 renal): > 100 µM
GI50 (CCRF-CEM leukemia): > 100 µM
TGI (CCRF-CEM leukemia): > 100 µM
GI50 (COLO 205 colon): > 100 µM
TGI (COLO 205 colon): > 100 µM
GI50 (DU-145 prostate): > 100 µM
TGI (DU-145 prostate): > 100 µM
GI50 (EKVX NSCLC): > 100 µM
TGI (EKVX NSCLC): > 100 µM
GI50 (HCC-2998 colon): > 100 µM
TGI (HCC-2998 colon): > 100 µM
GI50 (HCT-116 colon): > 100 µM
TGI (HCT-116 colon): > 100 µM
GI50 (HCT-15 colon): > 100 µM
TGI (HCT-15 colon): > 100 µM
GI50 (HL-60(TB) leukemia): > 100 µM
TGI (HL-60(TB) leukemia): > 100 µM
GI50 (HOP-62 NSCLC): > 100 µM
TGI (HOP-62 NSCLC): > 100 µM
GI50 (HOP-92 NSCLC): > 100 µM
TGI (HOP-92 NSCLC): > 100 µM
GI50 (HS 578T breast): > 100 µM
TGI (HS 578T breast): > 100 µM
GI50 (HT29 colon): > 100 µM
TGI (HT29 colon): > 100 µM
GI50 (IGROV1 ovarian): > 100 µM
TGI (IGROV1 ovarian): > 100 µM
GI50 (K-562 leukemia): > 100 µM
TGI (K-562 leukemia): > 100 µM
GI50 (KM12 colon): > 100 µM
TGI (KM12 colon): > 100 µM
GI50 (LOX IMVI melanoma): > 100 µM
TGI (LOX IMVI melanoma): > 100 µM
GI50 (M14 melanoma): > 100 µM
TGI (M14 melanoma): > 100 µM
GI50 (MALME-3M melanoma): > 100 µM
TGI (MALME-3M melanoma): > 100 µM
GI50 (MCF7 breast): > 100 µM
TGI (MCF7 breast): > 100 µM
GI50 (MDA-MB-231 breast): > 100 µM
TGI (MDA-MB-231 breast): > 100 µM
GI50 (MDA-MB-435): > 100 µM
TGI (MDA-MB-435): > 100 µM
GI50 (MDA-MB-468 breast): > 100 µM
TGI (MDA-MB-468 breast): > 100 µM
GI50 (MOLT-4 leukemia): > 100 µM
TGI (MOLT-4 leukemia): > 100 µM
GI50 (NCI-H226 lung): > 100 µM
TGI (NCI-H226 lung): > 100 µM
GI50 (NCI-H23 lung): > 100 µM
TGI (NCI-H23 lung): > 100 µM
GI50 (NCI-H460 lung): > 100 µM
TGI (NCI-H460 lung): > 100 µM
GI50 (NCI-H522 lung): > 100 µM
TGI (NCI-H522 lung): > 100 µM
GI50 (NCI/ADR-RES ovarian): > 100 µM
TGI (NCI/ADR-RES ovarian): > 100 µM
GI50 (OVCAR-3 ovarian): > 100 µM
TGI (OVCAR-3 ovarian): > 100 µM
GI50 (OVCAR-4 ovarian): > 100 µM
TGI (OVCAR-4 ovarian): > 100 µM
GI50 (OVCAR-5 ovarian): > 100 µM
TGI (OVCAR-5 ovarian): > 100 µM
GI50 (OVCAR-8 ovarian): > 100 µM
TGI (OVCAR-8 ovarian): > 100 µM
GI50 (PC-3 prostate): > 100 µM
TGI (PC-3 prostate): > 100 µM
GI50 (RPMI-8226 leukemia): > 100 µM
TGI (RPMI-8226 leukemia): > 100 µM
GI50 (RXF 393 renal): > 100 µM
TGI (RXF 393 renal): > 100 µM
GI50 (SF-268 CNS): > 100 µM
TGI (SF-268 CNS): > 100 µM
GI50 (SF-295 CNS): > 100 µM
TGI (SF-295 CNS): > 100 µM
GI50 (SF-539 CNS): > 100 µM
TGI (SF-539 CNS): > 100 µM
GI50 (SK-MEL-2 melanoma): > 100 µM
TGI (SK-MEL-2 melanoma): > 100 µM
GI50 (SK-MEL-28 melanoma): > 100 µM
TGI (SK-MEL-28 melanoma): > 100 µM
GI50 (SK-MEL-5 melanoma): > 100 µM
TGI (SK-MEL-5 melanoma): > 100 µM
GI50 (SK-OV-3 ovarian): > 100 µM
TGI (SK-OV-3 ovarian): > 100 µM
GI50 (SN12C renal): > 100 µM
TGI (SN12C renal): > 100 µM
GI50 (SNB-19 CNS): > 100 µM
TGI (SNB-19 CNS): > 100 µM
GI50 (SNB-75 CNS): > 100 µM
TGI (SNB-75 CNS): > 100 µM
GI50 (SR leukemia): > 100 µM
TGI (SR leukemia): > 100 µM
GI50 (SW-620 colon): > 100 µM
TGI (SW-620 colon): > 100 µM
GI50 (T-47D breast): > 100 µM
TGI (T-47D breast): > 100 µM
GI50 (TK-10 renal): > 100 µM
TGI (TK-10 renal): > 100 µM
GI50 (U251 CNS): > 100 µM
TGI (U251 CNS): > 100 µM
GI50 (UACC-257 melanoma): > 100 µM
TGI (UACC-257 melanoma): > 100 µM
GI50 (UACC-62 melanoma): > 100 µM
TGI (UACC-62 melanoma): > 100 µM
GI50 (UO-31 renal): > 100 µM
TGI (UO-31 renal): > 100 µM
